Measurements from patent US20220098265A1 (MEDIMMUNE LIMITED, priority 2012, published 2022).
Numbered stars: 1 amine (or outer) side, 2 acyl side, 3 side chain; on linkers, the order of the positions; unused ones are H or OH. Side chains are listed from the residue outwards. Peptide text beside a SMILES is read from it. * marks the point of attachment. γGlu = O=C(O)[C@H](CCC(=O)[*:2])N[*:1]; Palmitoyl = CCCCCCCCCCCCCCCC(=O)*

What was measured:
[1] = Stability testing of peptides in mouse plasma; assay type: in vitro ADME
Procedure: (§1) Stability testing of peptides in plasma. The stability in plasma of the peptides […], […], […] and […] was determined as follows. […] The frozen blank plasma from human, rat and mouse had been thawed and heated to a temperature of 37° C. before addition of the stock solution. The spiked plasma samples were gently mixed and allowed to equilibrate for about 5 minutes before start of experiment. The plasma samples were incubated for 48 hours in a Galaxy® CO2 incubator at 37° C. […] The samples were stored at -70° C. until analysis. Plasma samples were assayed as follows. The 30 μL plasma samples were protein precipitated with […] of cold ethanol in a 96-well low bind plate (Eppendorf Protein LoBind). After mixing and centrifugation 100 μl the supernatant was transferred to a new plate and 1 μl was injected onto an analytical column. The analysis was performed using a μLC-system ([…]) coupled to a medium high resolution mass spectrometer (Perkin Elmer PenTOF) with positive electrospray ionisation. […] Flow: 0.1 ml/min using a slow reversed phase gradient. […] Products with +1 mass may arise from deamidation at amide groups of glutamine or at the C-terminus. Cleavage products arise from the action of the protease DPP IV in plasma. Both the degradation of the peptides and formation of peptide products were reported in percentage of the initial peptide concentration. Peaks were integrated and % remaining peptide was calculated: […] Levels of deamidation and DPP IV cleavage were low for […] and […].

[2] = Peptide solubility in buffers (A280); conditions: target 1 mg/ml
[3] = Stability testing of peptides in rat plasma; assay type: in vitro ADME
Procedure: Stability testing of peptides in plasma. The stability in plasma of the peptides […], […], […] and […] was determined as follows. […] The frozen blank plasma from human, rat and mouse had been thawed and heated to a temperature of 37° C. before addition of the stock solution. The spiked plasma samples were gently mixed and allowed to equilibrate for about 5 minutes before start of experiment. The plasma samples were incubated for 48 hours in a Galaxy® CO2 incubator at 37° C. […] The samples were stored at -70° C. until analysis. Plasma samples were assayed as follows. The 30 μL plasma samples were protein precipitated with […] of cold ethanol in a 96-well low bind plate (Eppendorf Protein LoBind). After mixing and centrifugation 100 μl the supernatant was transferred to a new plate and 1 μl was injected onto an analytical column. The analysis was performed using a μLC-system ([…]) coupled to a medium high resolution mass spectrometer (Perkin Elmer PenTOF) with positive electrospray ionisation. […] Flow: 0.1 ml/min using a slow reversed phase gradient. […] Products with +1 mass may arise from deamidation at amide groups of glutamine or at the C-terminus. Cleavage products arise from the action of the protease DPP IV in plasma. […] Peaks were integrated and % remaining peptide was calculated: […] […]

Human GlucR = Human GlucR (Homo sapiens, UniProt P47871); experiment: cAMP assay 2 in 4.4% human serum albumin, human GlucR; conditions: assay 2, 4.4% Human Serum Albumin; relative potency GlucR (vs glucagon)/relative potency GLP1R (vs GLP1)
DIO mice = experiment: Diet induced obesity (DIO) mouse model, study A; assay type: in vivo; conditions: for HOMA / Hepatic TG / Plasma NEFA / Plasma TG: day 14; for FGF21 / BeHy: day 14 (dose from row order); for Glucose / Insulin: day 14, 4-hour fasting; for BeHy: beta-hydroxybutyrate
Description: Female C57/B16JHsdOla (obtained from Harlan Laboratories, UK) were started on a high fat diet of D12492 (Research Diets, NJ, USA) and a chocolate confection, delicato ball (Delicata Bakverk, Sweden) at 9-11 weeks of age, and were maintained on the diet for 16 weeks prior to arrival to the animal facility, during a three week acclimatizion period and during drug treatment, caloric content of the two components of the diet is shown in Table 11. The mice were divided into 9 groups (n=5-6), and treatment was started at 29 weeks of age.
The body weight of the animals was monitored daily throughout the dosing period. At day 14, blood samples for the measurement of plasma glucose and insulin from conscious mice were obtained after a 4-hour fasting period. Mice were then anaesthetized using isofluorane and terminal blood was collected from the capillary bed behind the eye. The following parameters were measured: blood chemistry measurements of triglycerides, total cholesterol, non-esterified fatty acids (NEFA), beta-hydroxybutyrate and fibroblast growth factor 21 (FGF21) (Tables 14 and 15 below).

physchem = conditions: pH 7.2
Procedure: Peptide solubility was assessed in three different isotonic formulations: • 1. […] Final formulation pH=7.2 • 2. Back up formulation 1 (BF1)=0.05M Tris, 50 mM Arginine/Proline. Final formulation pH=8.0 • 3. […] Final formulation pH=7.0

Mouse GlucR = Mouse GlucR (Mus musculus, UniProt Q61606); experiment: cAMP assay 2 in […] mouse serum albumin, mouse GlucR; conditions: assay 2, […] Mouse Serum Albumin; relative potencies vs natural ligands
[4] = Stability testing of peptides in human plasma; assay type: in vitro ADME
Procedure: as §1

human serum albumin = human serum albumin (Homo sapiens, UniProt P02768); experiment: Fraction of free peptide at plasma concentration of albumin, calculated from variation in cAMP generation with HSA concentration; assay type: in vitro ADME; set-up: purchased Sigma Aldrich; conditions: calculated from variation in cAMP generation with HSA concentration
Rat GlucR = Rat GlucR (Rattus norvegicus, UniProt P30082); experiment: cAMP assay 2 in […] rat serum albumin, rat GlucR; conditions: assay 2, […] Rat Serum Albumin; relative potencies vs natural ligands
Rat GlucR, sequence (P30082 27-485): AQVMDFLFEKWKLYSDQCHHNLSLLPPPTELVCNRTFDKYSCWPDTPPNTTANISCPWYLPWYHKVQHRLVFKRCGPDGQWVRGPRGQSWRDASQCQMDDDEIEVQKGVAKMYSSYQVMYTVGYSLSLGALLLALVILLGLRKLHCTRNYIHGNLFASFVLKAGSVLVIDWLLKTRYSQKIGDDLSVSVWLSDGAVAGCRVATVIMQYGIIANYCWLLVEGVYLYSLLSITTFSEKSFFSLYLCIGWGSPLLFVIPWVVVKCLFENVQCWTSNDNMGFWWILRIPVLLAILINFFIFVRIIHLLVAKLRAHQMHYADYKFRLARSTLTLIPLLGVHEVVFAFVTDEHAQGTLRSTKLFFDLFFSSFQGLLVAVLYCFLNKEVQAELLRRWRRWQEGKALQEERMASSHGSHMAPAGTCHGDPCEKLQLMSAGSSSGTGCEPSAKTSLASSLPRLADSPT

Human GlucR, sequence (P47871 26-477): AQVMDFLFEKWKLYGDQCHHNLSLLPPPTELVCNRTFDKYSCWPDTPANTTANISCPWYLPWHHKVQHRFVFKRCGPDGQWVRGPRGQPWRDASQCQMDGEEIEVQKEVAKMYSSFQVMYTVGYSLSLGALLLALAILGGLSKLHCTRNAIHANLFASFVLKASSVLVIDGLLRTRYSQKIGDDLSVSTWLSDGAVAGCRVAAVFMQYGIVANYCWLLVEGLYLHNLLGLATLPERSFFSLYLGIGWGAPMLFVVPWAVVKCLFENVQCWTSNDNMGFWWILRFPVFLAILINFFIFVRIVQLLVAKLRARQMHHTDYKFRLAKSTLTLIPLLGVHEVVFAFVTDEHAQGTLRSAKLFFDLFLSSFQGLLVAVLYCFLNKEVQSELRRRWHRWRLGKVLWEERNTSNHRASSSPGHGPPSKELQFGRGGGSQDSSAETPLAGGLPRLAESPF
human serum albumin, sequence (P02768 25-609): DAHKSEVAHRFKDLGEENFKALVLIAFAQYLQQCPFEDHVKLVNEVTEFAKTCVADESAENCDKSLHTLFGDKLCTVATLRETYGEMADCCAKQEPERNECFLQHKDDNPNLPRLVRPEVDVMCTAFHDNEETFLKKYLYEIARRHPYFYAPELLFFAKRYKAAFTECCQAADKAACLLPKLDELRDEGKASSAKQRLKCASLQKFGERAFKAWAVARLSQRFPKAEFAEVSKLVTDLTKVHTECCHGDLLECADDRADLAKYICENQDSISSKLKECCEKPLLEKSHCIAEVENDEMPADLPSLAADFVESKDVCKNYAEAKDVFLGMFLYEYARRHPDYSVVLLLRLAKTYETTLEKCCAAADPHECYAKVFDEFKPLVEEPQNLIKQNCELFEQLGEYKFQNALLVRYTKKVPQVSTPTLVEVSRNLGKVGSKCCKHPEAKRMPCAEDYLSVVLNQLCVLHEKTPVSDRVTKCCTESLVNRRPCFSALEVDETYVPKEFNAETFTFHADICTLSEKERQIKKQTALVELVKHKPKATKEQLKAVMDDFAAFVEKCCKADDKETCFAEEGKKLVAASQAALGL
Mouse GlucR, sequence (Q61606 27-485): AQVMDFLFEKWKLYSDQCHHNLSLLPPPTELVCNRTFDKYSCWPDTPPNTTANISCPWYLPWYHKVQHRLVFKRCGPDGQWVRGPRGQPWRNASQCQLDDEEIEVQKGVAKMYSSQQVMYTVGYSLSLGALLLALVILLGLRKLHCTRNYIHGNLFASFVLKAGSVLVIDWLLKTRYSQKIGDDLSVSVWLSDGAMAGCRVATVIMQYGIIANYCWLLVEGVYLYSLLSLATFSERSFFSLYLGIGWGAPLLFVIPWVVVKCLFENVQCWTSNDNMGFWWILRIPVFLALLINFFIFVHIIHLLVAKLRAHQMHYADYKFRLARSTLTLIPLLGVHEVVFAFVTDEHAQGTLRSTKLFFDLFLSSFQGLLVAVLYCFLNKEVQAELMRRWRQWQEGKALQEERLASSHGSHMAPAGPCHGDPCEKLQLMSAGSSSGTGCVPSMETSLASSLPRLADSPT

In the case of `CCCCCCCCCCCCCCCC(=O)N[C@@H](CCC(=O)NCCCC[C@H](NC(=O)[C@H](CCCCN)NC(=O)[C@H](CO)NC(=O)[C@H](Cc1ccc(O)cc1)NC(=O)[C@H](CC(=O)O)NC(=O)[C@H](CO)NC(=O)[C@@H](NC(=O)[C@H](Cc1ccccc1)NC(=O)[C@@H](NC(=O)CNC(=O)[C@H](CCC(N)=O)NC(=O)[C@H](CO)NC(=O)[C@@H](N)Cc1c[nH]cn1)[C@@H](C)O)[C@@H](C)O)C(=O)N[C@@H](CC(C)C)C(=O)N[C@@H](CC(=O)O)C(=O)N[C@@H](CO)C(=O)N[C@@H](CCC(=O)O)C(=O)N[C@@H](CCCNC(=N)N)C(=O)N[C@@H](C)C(=O)N[C@@H](CCCNC(=N)N)C(=O)N[C@@H](CC(=O)O)C(=O)N[C@@H](Cc1ccccc1)C(=O)N[C@H](C(=O)N[C@@H](C)C(=O)N[C@@H](Cc1c[nH]c2ccccc12)C(=O)N[C@@H](CC(C)C)C(=O)N[C@H](C(=O)N[C@@H](C)C(=O)NCC(=O)NCC(N)=O)C(C)C)C(C)C)C(=O)O` [Peptide G730] (H-HSQGTFTSDYSKK([γGlu-Palmitoyl])LDSERARDFVAWLVAGG-NH2; N-terminus assumed), the “% +1 prod” value [1] is reported as 15%, the “% DPP cleaved product” value ([1]; Mouse Plasma at 24 h, 37° C., column % DPP cleaved product/+1 DPP cleaved product, first figure) is reported as 14% and the “% +1 DPP cleaved product” value ([1]; Mouse Plasma at 24 h, 37° C., column % DPP cleaved product/+1 DPP cleaved product, second figure) is reported as 5%. For the same molecule, the “Conc. (mg/ml) A280” value ([2]; Glutamate pH 4.5, 100 mM) was 0.83 mg/mL, the “Conc. (mg/ml) A280” value ([2]; Phosphate pH 6.5, 100 mM) was 0.83 mg/mL and the “Conc. (mg/ml) A280” value ([2]; Phosphate pH 7.5, 100 mM) was 0.85 mg/mL. The “Conc. (mg/ml) A280” value ([2]; Phosphate, pH = 6, 100 mM) was 0.14 mg/mL, the “Conc. (mg/ml) A280” value ([2]; Tris pH 7.5, 100 mM) was 0.83 mg/mL and the “Conc. (mg/ml) A280” value ([2]; Tris pH 8.0, 100 mM) was 1.1 mg/mL. For the same molecule, the “% +1 prod” value [3] was 58%, the “% DPP cleaved product/+1 DPP cleaved product” value [3] was 2% and the “Human GlucR/GLP1R Ratio” value (Human GlucR) was 0.122. The “BW day 14 (% change of vehicle mean)” value (DIO mice; 10 nmol/kg s.c. twice daily for 14 days) was −7.5%, the HOMA (DIO mice; 10 nmol/kg s.c. twice daily) was 3.3 and the “Hepatic TG” value (DIO mice; 10 nmol/kg s.c. twice daily) was 9.0 g TG/100g Tissue. The Plasma NEFA (DIO mice; 10 nmol/kg s.c. twice daily) was 0.28 mM, the Plasma TG (DIO mice; 10 nmol/kg s.c. twice daily) was 0.21 mM and the FGF21 (DIO mice; 10 nmol/kg s.c. twice daily) was 1963 pg/mL. The Glucose (DIO mice; 10 nmol/kg s.c. twice daily) was 7.2 mM, the Insulin (DIO mice; 10 nmol/kg s.c. twice daily) was 0.4 nM and the “BW day 14 (% change of vehicle mean)” value (DIO mice; 20 nmol/kg s.c. twice daily for 14 days) was −15.6%. The HOMA (DIO mice; 20 nmol/kg s.c. twice daily) was 1.7, the “Hepatic TG” value (DIO mice; 20 nmol/kg s.c. twice daily) was 17.7 g TG/100g Tissue and the Plasma NEFA (DIO mice; 20 nmol/kg s.c. twice daily) was 0.26 mM. It also gave a Plasma TG (DIO mice; 20 nmol/kg s.c. twice daily) of 0.2 mM, an FGF21 (DIO mice; 20 nmol/kg s.c. twice daily) of 2236 pg/mL and a Glucose (DIO mice; 20 nmol/kg s.c. twice daily) of 6.7 mM. The Insulin (DIO mice; 20 nmol/kg s.c. twice daily) was 0.2 nM, the “insulin sensitivity index HOMA” value (DIO mice; 20 nmol/kg, result in words) was “significantly improved” and the “change in weight at day 14 as compared to the vehicle-treated animals” value (DIO mice; 50 nmol/kg) was “about 24%”. The “BW day 14 (% change of vehicle mean)” value (DIO mice; 50 nmol/kg s.c. twice daily for 14 days) was −24.0%, the HOMA (DIO mice; 50 nmol/kg s.c. twice daily) was 2.1 and the “Hepatic TG” value (DIO mice; 50 nmol/kg s.c. twice daily) was 28.1 g TG/100g Tissue. The Plasma NEFA (DIO mice; 50 nmol/kg s.c. twice daily) was 0.32 mM, the Plasma TG (DIO mice; 50 nmol/kg s.c. twice daily) was 0.23 mM and the FGF21 (DIO mice; 50 nmol/kg s.c. twice daily) was 5294 pg/mL. The Glucose (DIO mice; 50 nmol/kg s.c. twice daily) was 5.9 mM, the Insulin (DIO mice; 50 nmol/kg s.c. twice daily) was 0.3 nM and the Total plasma cholesterol (DIO mice; at all doses, result in words) was “lowered”. It also gave a BeHy (DIO mice; 10 nmol/kg s.c. twice daily) of 428 µmol/L, a BeHy (DIO mice; 20 nmol/kg s.c. twice daily) of 750 µmol/L and a BeHy (DIO mice; 50 nmol/kg s.c. twice daily) of 1477 µmol/L. The “effect on body weight over the 14 day dosing period” value (DIO mice; study A, FIGS. 1-4) was “dose dependent and continuous weight loss”, the “glucose levels at day 14” value (DIO mice; study A, result in words) was “dose-dependent reduction” and the solubility (physchem) was ≥ 5000 µg/mL. For the same molecule, the “Mouse GlucR/GLP1R Ratio” value (Mouse GlucR) was 0.04, the “% +1 prod” value [4] was <1% and the “% DPP cleaved product/+1 DPP cleaved product” value [4] was <1%. For the same molecule, the “free peptide at 4.4% HSA” value (human serum albumin) was 0.85% and the “Rat GlucR/GLP1R Ratio” value (Rat GlucR) was 0.06.
